Reference: patent US10794932B2, “Biosensor for the detection of a biological target, and method for manufacturing the same” (The Governing Council of The University of Toronto, priority 2016, dated 2020)

Legend:
Format in all cases: binding
TLR3 = molecular target: T1, TLR3 (Mus musculus, UniProt Q99MB1); assay: TLR multiplex sensor, EIS film resistance before/after exposure (Example 5), TLR3 sensor; settings: exposure 20 minutes
T1 sequence (Q99MB1 26-905): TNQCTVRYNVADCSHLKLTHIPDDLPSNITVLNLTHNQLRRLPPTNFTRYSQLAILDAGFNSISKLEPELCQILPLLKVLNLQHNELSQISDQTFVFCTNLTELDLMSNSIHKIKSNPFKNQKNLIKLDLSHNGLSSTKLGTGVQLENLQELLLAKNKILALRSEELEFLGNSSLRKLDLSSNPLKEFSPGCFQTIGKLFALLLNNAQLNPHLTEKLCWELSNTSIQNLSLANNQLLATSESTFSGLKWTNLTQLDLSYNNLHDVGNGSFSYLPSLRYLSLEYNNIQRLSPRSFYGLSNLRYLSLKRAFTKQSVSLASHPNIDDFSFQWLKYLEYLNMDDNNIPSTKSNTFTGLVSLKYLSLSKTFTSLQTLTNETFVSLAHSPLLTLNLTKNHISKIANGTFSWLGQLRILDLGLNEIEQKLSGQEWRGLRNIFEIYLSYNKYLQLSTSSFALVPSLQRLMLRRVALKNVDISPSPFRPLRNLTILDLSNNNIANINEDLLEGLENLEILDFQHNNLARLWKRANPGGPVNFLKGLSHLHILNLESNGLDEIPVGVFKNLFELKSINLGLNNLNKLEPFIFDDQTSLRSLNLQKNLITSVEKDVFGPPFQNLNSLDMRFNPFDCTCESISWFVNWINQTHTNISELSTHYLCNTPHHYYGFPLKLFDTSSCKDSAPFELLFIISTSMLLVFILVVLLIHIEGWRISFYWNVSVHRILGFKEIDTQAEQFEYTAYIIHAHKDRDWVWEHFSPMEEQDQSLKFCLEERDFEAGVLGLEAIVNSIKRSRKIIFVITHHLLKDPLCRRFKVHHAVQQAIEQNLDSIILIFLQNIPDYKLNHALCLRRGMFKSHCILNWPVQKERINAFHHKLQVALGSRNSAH
Experimental: For each multiplex TLR sensor, 5 separate gold electrodes were used for binding TLR 1 to 5. The 5 modified electrodes/sensors were exposed to the analyte solution and evaluated one by one using potentiostats and electrochemical cells.
The preparation of each TLR biosensor was evaluated using EIS. It is understood that cyclic voltammetry as well as electrochemical impedance microscopy can also be used for monitoring the modification. […] Ethanolamine was then applied to deactivate unreacted LPA. Due to dissociation of unspecific absorbed TLR, the Rct dropped slightly. Experimental curves were evaluated using a model to obtain the Rct values, which can be seen at FIG. 9. Measurements from at least triplicated samples prepared were used to obtain statistic information.
The TLR1 sensor was exposed to an E. coli K12 whole-cell buffer solution for 20 minutes. The sensor was then removed, washed thoroughly and characterized in the electrochemical cell measuring the Rct again. The difference in Rct before and after exposure is the response triggered by the target. The same protocol was carried out for all remaining TLRs (TLRs 2-5) to obtain one set of pattern for E. coli K12 (FIGS. 10b to 10e). Multiple sets were investigated for statistical relevance. […]

rmTLR3 = molecular target: T2, rmTLR3 (Mus musculus, UniProt Q99MB1); assay: Selectivity test, TLR3 sensor, EIS; settings: 10 μM
T2 construct: purchased
T2 sequence (Q99MB1 26-905): T1 sequence (Q99MB1 26-905)

rmTLR5 = molecular target: T3, rmTLR5 (Mus musculus, UniProt Q9JLF7); assay: Selectivity test, TLR5 sensor, EIS; settings: 10 μM
T3 construct: purchased
Experimental: TLR sensors were prepared using fresh, cleaned gold electrodes. The electrodes were immersed in a 2 mM 1-lipoic acid n-hydroxysuccinimide ester (LPA) ethanol solution for 48 hours at 277 K. The electrodes were then rinsed thoroughly using absolute ethanol and blown dry under nitrogen before incubation in 200 μg/ml rmTLR1, 200 μg/ml rmTLR2 and 200 μg/ml ‘rmTLR1 and 2’ mixture for 72 hours at 277 K. The rmTLR1 and 2 mixture was prepared by mixing 200 μg/ml rmTLR1 and 200 μg/ml rmTLR2 with a volume ratio of 1:1. The final concentration of each component was 100 μg/ml and the total concentration of the combined TLR protein content was 200 μg/ml. Following the supplier's recommended conditions, all TLRs were prepared in PBS buffer (pH˜7.4). The electrodes were rinsed with an excess volume of Milli-Q water and blown dry under nitrogen. An ethanolamine-tris buffer solution was prepared by dissolving 1.2 g of ethanolamine and 0.121 g of Tris base in 20 mL of water, the pH was adjusted to 8.4 using hydrochloric acid. […]
All electrochemical measurements were carried out using a cell with a three-electrode configuration in an enclosed Faraday cage. […] The experimental EIS curves were evaluated to determine the film resistance using ZSimpWin 2.0 software. […]

T3 sequence (Q9JLF7 27-859): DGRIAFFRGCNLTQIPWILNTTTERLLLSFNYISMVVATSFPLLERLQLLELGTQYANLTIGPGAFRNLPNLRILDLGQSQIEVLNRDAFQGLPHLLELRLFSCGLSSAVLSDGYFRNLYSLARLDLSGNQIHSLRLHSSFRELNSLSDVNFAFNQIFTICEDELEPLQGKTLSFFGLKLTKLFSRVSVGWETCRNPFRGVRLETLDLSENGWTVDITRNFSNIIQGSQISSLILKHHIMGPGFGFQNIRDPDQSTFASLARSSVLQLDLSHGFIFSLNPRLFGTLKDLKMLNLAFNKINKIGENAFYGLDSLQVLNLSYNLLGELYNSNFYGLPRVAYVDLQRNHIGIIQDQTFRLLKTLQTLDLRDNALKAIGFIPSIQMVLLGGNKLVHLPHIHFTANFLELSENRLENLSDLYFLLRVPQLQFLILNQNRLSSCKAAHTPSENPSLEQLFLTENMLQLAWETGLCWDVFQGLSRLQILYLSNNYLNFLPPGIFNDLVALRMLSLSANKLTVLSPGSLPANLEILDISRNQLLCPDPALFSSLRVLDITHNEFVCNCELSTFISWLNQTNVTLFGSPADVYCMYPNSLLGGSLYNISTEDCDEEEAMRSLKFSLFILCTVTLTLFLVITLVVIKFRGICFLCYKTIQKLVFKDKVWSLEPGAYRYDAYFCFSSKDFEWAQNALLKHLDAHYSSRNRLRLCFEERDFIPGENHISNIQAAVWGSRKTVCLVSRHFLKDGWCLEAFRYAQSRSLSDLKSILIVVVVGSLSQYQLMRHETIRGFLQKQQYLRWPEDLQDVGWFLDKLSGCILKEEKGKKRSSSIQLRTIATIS

## Pam3CSK4
TLR3
  delta Rct %: limited responses
rmTLR3
  electrochemical response (selectivity test): slight signal variations
rmTLR5
  electrochemical response (selectivity test): slight signal variations
